Assay results from US10596127B2, “Composition for reducing the frequency of urination, method of making and use thereof” (WELLESLEY PHARMACEUTICALS, LLC, priority 2013, dated 2020).

What was measured:
[1] = system: COX2 expression by normal human bladder smooth muscle cells; assay: Cell-based ELISA of total COX2 in normal human bladder smooth muscle cells; conditions: for effect on the effect of carbachol and LPS on COX2 levels: LPS-induced responses: analgesic at either 5 μM or 50 μM
Description: COX2 responses were analyzed by a Cell-Based ELISA using Human/mouse total COX2 immunoassay (R&D Systems), following the instructions of the manufacturer. Briefly, after cells fixation and permeabilization, a mouse anti-total COX2 and a rabbit anti-total GAPDH were added to the wells of the clear-bottom black 96-well cell culture microculture plates. After incubation and washes, an HRP-conjugated anti-mouse IgG and an AP-conjugated anti-rabbit IgG were added to the wells. Following another incubation and set of washes, the HRP- and AP-fluorogenic substrates were added. Finally, a Victor® V multilabel plate reader (PerkinElmer) was used to read the fluorescence emitted at 600 nm (COX2 fluorescence) and 450 nm (GAPDH fluorescence). Results are expressed as relative levels of total COX2 as determined by relative fluorescence unit (RFUs) and normalized to the housekeeping protein GAPDH.
Normal human bladder smooth muscle cells were isolated by enzymatic digestion from macroscopically normal pieces of human bladder. Cells were expended in vitro by culture at 37° C. in a 5% CO2 atmosphere in RPMI 1640 supplemented with 10% fetal bovine serum, 15 mM HEPES, 2 mM L-glutamine, 100 U/ml penicillin, and […] of streptomycin and passage once a week by treatment with trypsin to detach cells followed by reseeding in a new culture flask. The first week of culture, the culture medium was supplemented with 0.5 ng/ml epidermal growth factor, 2 ng/ml fibroblast growth factor, and 5 μg/ml insulin.
[…] When no other effectors were added to the cells, 50 μl of RPMI 1640 without fetal bovine serum were added to the wells to adjust the final volume to 200 μl.
After 24 hours of culture, 150 μl of culture supernatants were collected, spun down for 2 min at 8,000 rpm at 4° C. to remove cells and debris and stored at −70° C. for analysis of Prostaglandin E2 (PGE2) responses by ELISA. Cells were fixed, permeabilized and blocked for detection of COX2 using a fluorogenic substrate. In selected experiment cells were stimulated 12 hours in vitro for analysis of COX2, PGE2 and cytokine responses.
COX2 and PGE2 responses were analyzed as described in Example 3. Cytokine responses were analyzed as described in Example 2.

[2] = system: PGE2 secretion by mouse bladder cells; assay: PGE2 ELISA of mouse bladder cell culture supernatants; type: cell-based; conditions: for effect on the effect of LPS on PGE2 secretion: LPS (1 μg/ml), analgesic 5 or 50 μM
Description: Bladder cells were removed from euthanized animals C57BL/6 mice (8-12 weeks old) and cells were isolated by enzymatic digestion followed by purification on a Percoll gradient. […] Bladder slurries were enzymatically digested for 30 minutes at 37° C. Undigested fragments were further dispersed through a cell-trainer. The cell suspension was pelleted and added to a discontinue 20%, 40% and 75% Percoll gradient for purification on mononuclear cells. Each experiment used 50-60 bladders. […] Cells were cultured at 37° C. in a 5% CO2 atmosphere. Bladder cells were treated with analgesic solutions (50 well) either alone or together with carbachol (10-Molar, 50 μl/well), as an example of non-inflammatory stimuli, or lipopolysaccharide (LPS) of Salmonella typhimurium (1 μg/ml, 50 μl/well), as an example of […] stimuli. […] Cells were fixed, permeabilized and blocked for detection of Cyclooxygenase-2 (COX2) using a fluorogenic substrate. In selected experiment cells were stimulated 12 hours in vitro for analysis of COX2 responses […] More specifically, culture supernatants or PGE2 standards were added to the wells of a 96-well polystyrene microplate coated with a goat anti-mouse polyclonal antibody. After one hour incubation on a microplate shaker, an HRP-conjugated PGE2 was added and plates incubated for an additional two hours at room temperature. The plates were then washed and HRP substrate solution added to each well. The color was allowed to develop for 30 min and the reaction stopped by addition sulfuric acid before reading the plate at 450 nm with wavelength correction at 570 nm. Results are expressed as mean pg/ml of PGE2.

[3] = system: IL-6 secretion by normal human bladder smooth muscle cells; assay: IL-6 ELISA of normal human bladder smooth muscle cell supernatants; type: cell-based
[4] = system: TNFα secretion by normal human bladder smooth muscle cells; assay: TNFα ELISA of normal human bladder smooth muscle cell supernatants; type: cell-based
[5] = Carbachol 10^−3 M plus analgesic 50 μM, carbachol alone 437, unstimulated 230, mean of duplicates
[6] = Carbachol 10^−3 M plus analgesic 50 μM, carbachol alone 462, unstimulated 199
[7] = LPS (10 μg/ml) plus analgesic 5 μM, LPS alone 633, unstimulated 199
[8] = LPS (10 μg/ml) plus analgesic 5 μM, LPS alone 672, unstimulated 230, mean of duplicates
[9] = LPS (10 μg/ml) plus analgesic 50 μM, LPS alone 633, unstimulated 199
[10] = LPS (10 μg/ml) plus analgesic 50 μM, LPS alone 672, unstimulated 230, mean of duplicates
[11] = LPS (1 μg/ml) plus analgesic 5 μM, LPS alone 925 ± 55, unstimulated <20.5
[12] = LPS (1 μg/ml) plus analgesic 50 μM, LPS alone 925 ± 55, unstimulated <20.5
[13] = LPS (10 μg/ml) plus analgesic 5 μM, LPS alone 4383
[14] = LPS (10 μg/ml) plus analgesic 5 μM, LPS alone 4838, mean of duplicates
[15] = LPS (10 μg/ml) plus analgesic 50 μM, LPS alone 4383
[16] = LPS (10 μg/ml) plus analgesic 50 μM, LPS alone 4838, mean of duplicates
[17] = LPS (10 μg/ml) plus analgesic 5 μM, LPS alone 4107
[18] = LPS (10 μg/ml) plus analgesic 5 μM, LPS alone 5725, mean of duplicates
[19] = LPS (10 μg/ml) plus analgesic 50 μM, LPS alone 4107
[20] = LPS (10 μg/ml) plus analgesic 50 μM, LPS alone 5725, mean of duplicates
[21] = stimulus alone, no analgesic (Carbachol 10^−3 M; LPS 10 μg/ml), unstimulated <5

Structure (SMILES)	Total COX2 levels (Normalized RFUs) subject 1 [1, 5] [Normalized RFUs]	Total COX2 levels (Normalized RFUs) subject 2 [1, 6] [Normalized RFUs]	Total COX2 levels (Normalized RFUs) subject 2 [1, 7] [Normalized RFUs]	Total COX2 levels (Normalized RFUs) subject 1 [1, 8] [Normalized RFUs]	Total COX2 levels (Normalized RFUs) subject 2 [1, 9] [Normalized RFUs]	Total COX2 levels (Normalized RFUs) subject 1 [1, 10] [Normalized RFUs]	effect on the effect of carbachol and LPS on COX2 levels [1]	PGE2 levels [2, 11] [pg/mL]	PGE2 levels [2, 12] [pg/mL]	effect on the effect of LPS on PGE2 secretion [2]	IL-6 (pg/ml) Subject 2 [3, 13] [pg/mL]	IL-6 (pg/ml) Subject 1 [3, 14] [pg/mL]	IL-6 (pg/ml) Subject 2 [3, 15] [pg/mL]	IL-6 (pg/ml) Subject 1 [3, 16] [pg/mL]	TNFα (pg/ml) Subject 2 [4, 17] [pg/mL]	TNFα (pg/ml) Subject 1 [4, 18] [pg/mL]	TNFα (pg/ml) Subject 2 [4, 19] [pg/mL]	TNFα (pg/ml) Subject 1 [4, 20] [pg/mL]	also measured
COc1ccc2cc([C@H](C)C(=O)O)ccc2c1 [Naproxen]	296	354	501	458	458	409	suppress	597 ± 19	588 ± 37	suppressed	2229	2077	2028	2102	2215	2591	2192	2427	–
CC(C)Cc1ccc(C(C)C(=O)O)cc1 (centres unmarked) [Ibuprofen, ibuprofen]	–	–	–	–	–	–	–	593 ± 46	568 ± 32	suppressed	2173	2063	1991	2021	2288	2733	1997	2603	–
C[N+](C)(C)CCOC(N)=O [Carbachol, carbachol]	–	–	–	–	–	–	–	–	–	–	–	–	–	–	–	–	–	–	COX2 responses to stimulus alone ([1]; no analgesic): induced low, but significant COX2 responses; Total COX2 levels (Normalized RFUs) subject 2 ([1]; stimulus alone, no analgesic (Carbachol 10^−3 M; LPS 10 μg/ml), unstimulated 199): 462 Normalized RFUs; Total COX2 levels (Normalized RFUs) subject 1 ([1]; stimulus alone, no analgesic (Carbachol 10^−3 M; LPS 10 μg/ml), unstimulated 230): 437 Normalized RFUs; PGE2 levels ([2]; stimulus alone, no analgesic (LPS 1 μg/ml, Carbachol (mM)), unstimulated <20.5): <20.5 pg/mL; PGE2 levels (pg/ml) ([2]; stimulus alone, no analgesic (LPS 1 μg/ml, Carbachol (mM)), unstimulated <20.5, listed as carbachol): not detected; IL-6 (pg/ml) Subject 1 [3, 21]: 232 pg/mL; IL-6 (pg/ml) Subject 2 [3, 21]: 278 pg/mL; TNFα (pg/ml) Subject 1 [4, 21]: 350 pg/mL; TNFα (pg/ml) Subject 2 [4, 21]: 286 pg/mL
CC(=O)Nc1ccc(O)cc1 [Acetaminophen, N-acetyl-para-aminophenol]	298	310	457	428	509	399	suppress	619 ± 32	600 ± 45	suppressed	2308	2012	1983	2018	2267	2338	2056	2184	–
CC(=O)Oc1ccccc1C(=O)O [Aspirin, Acetylsalicylic acid]	312	297	491	472	484	413	suppress	588 ± 21	571 ± 53	suppressed	2089	2199	2010	1987	2187	2479	2089	2266	–
